Where two headings read alike, the source gives them in different places.

The target of one test is Rhesus PDE2A3 (Macaca mulatta, UniProt B3VTJ2). As to the kind of experiment: PDE2 fluorescence polarization (IMAP FP) inhibition assay, rhesus enzyme. The format is biochemical, rhesus macaque. The method, boiled down: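 IMAP FP (mP from parallel and perpendicular fluorescence against substrate-only control) was read ≥1 h after adding binding reagent. The preceding 60 min room-temperature reaction contained FAM-cAMP (50 nM) and cGMP (1 uM) in pH 7.2 Tris buffer with MgCl2 and DTT. Enzyme was supernatant of sonicated AD293 cells expressing rhesus PDE2A3; compounds were 3-fold titrated, DMSO 1% final.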
Chain of Rhesus PDE2A3 (B3VTJ2 1-941): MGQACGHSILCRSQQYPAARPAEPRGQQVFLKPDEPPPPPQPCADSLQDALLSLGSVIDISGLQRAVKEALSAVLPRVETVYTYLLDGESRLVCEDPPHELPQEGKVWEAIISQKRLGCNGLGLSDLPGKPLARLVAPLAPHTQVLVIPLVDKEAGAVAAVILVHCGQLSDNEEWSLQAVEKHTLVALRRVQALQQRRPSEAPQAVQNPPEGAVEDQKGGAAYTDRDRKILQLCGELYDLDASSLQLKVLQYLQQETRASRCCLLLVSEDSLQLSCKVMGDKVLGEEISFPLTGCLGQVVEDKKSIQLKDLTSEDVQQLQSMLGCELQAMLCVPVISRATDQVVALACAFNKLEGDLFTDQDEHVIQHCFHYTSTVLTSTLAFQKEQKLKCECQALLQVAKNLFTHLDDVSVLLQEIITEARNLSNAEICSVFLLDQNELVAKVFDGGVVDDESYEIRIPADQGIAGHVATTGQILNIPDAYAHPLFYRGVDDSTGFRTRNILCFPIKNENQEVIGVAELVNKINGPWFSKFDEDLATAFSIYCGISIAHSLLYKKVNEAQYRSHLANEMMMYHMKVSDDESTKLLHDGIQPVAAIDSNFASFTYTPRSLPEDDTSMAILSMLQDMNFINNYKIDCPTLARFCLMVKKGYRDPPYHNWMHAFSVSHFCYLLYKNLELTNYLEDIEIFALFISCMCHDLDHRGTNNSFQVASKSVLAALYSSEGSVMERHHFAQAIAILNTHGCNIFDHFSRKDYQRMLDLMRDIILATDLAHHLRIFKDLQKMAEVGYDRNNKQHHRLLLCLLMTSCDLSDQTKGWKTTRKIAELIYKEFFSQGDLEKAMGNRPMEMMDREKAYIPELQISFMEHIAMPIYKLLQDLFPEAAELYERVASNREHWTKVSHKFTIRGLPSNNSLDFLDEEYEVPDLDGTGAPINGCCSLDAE
Background: In fluorescence polarisation assays a small probe gives low polarisation when free and higher when bound to something large.

The target in another test is human PDE2A1 (Homo sapiens (Human), UniProt O00408). As to the kind of experiment: IMAP FP PDE selectivity panel, human PDE2A1. Format: biochemical. The method, boiled down:
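IMAP FP format: substrate 50 nM FAM-cAMP plus 1000 nM cGMP, enzyme (insect-cell GST-tagged human PDE2A1) at ~20% conversion, 60 min reaction at room temperature. Apparent inhibition constants calculated from parallel/perpendicular fluorescence with KM 10,000 nM.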

Where [1] appears, read: Rhesus PDE2, Lab B, read-out: Rhesus PDE2 Ki (nM) - Lab B.
[2] abbreviates: Human PDE2, Lab B, read-out: Human PDE2 Ki (nM) - Lab B.
[3] abbreviates: Rhesus PDE2, Lab A, read-out: Rhesus PDE2 Ki (nM) - Lab A.
Where [4] appears, read: Human PDE2, Lab A, read-out: Human PDE2 Ki (nM) - Lab A.

Chain of human PDE2A1 (O00408 other isoform, or with tags, fused parts or gaps): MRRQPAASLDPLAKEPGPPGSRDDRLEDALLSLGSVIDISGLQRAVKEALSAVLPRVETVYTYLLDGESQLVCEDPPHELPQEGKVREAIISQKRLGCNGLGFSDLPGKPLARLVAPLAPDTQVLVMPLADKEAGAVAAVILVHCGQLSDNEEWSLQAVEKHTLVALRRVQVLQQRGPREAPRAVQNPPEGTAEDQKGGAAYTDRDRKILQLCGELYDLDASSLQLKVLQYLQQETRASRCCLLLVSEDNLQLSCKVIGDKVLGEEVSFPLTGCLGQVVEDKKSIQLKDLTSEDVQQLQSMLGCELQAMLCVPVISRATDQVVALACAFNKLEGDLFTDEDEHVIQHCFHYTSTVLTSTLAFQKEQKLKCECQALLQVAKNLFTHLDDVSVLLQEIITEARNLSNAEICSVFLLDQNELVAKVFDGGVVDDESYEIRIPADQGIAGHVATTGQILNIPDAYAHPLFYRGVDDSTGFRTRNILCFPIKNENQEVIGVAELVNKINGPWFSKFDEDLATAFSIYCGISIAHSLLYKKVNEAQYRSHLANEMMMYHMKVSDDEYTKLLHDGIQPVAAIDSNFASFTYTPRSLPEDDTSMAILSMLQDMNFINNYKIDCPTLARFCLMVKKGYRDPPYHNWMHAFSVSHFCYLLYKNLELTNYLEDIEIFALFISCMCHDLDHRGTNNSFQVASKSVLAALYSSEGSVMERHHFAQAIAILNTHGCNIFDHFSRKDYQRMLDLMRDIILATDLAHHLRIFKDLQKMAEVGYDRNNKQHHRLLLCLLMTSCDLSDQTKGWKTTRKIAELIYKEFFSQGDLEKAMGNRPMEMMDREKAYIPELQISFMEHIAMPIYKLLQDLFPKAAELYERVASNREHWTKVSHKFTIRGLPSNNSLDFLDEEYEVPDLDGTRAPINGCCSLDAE

On to `COc1ccc(C(C)(C)c2nc(C(=O)N[C@@H](c3ccc(OC(F)(F)F)c(F)c3)C(C)C)cc(=O)[nH]2)cc1` [Example 492, N-{(1R)-1-[3-fluoro-4-(trifluoromethoxy)phenyl]-2-methylpropyl}-2-[1-(4-methoxyphenyl)-1-methylethyl]-6-oxo-1,6-dihydropyrimidine-4-carboxamide], for which the Ki (in general, the equilibrium dissociation constant of an inhibitor or competing ligand from its target) at Rhesus PDE2A3 (setting [1]) is 42 nM; on human PDE2A1 (setting [2]), 29 nM.

Take `CC(C)(C)[C@@H](NC(=O)c1cc(=O)[nH]c(-c2ncccn2)n1)c1ccc(OC(F)F)cc1` [Example 450, N-{(1R)-1-[4-(difluoromethoxy)phenyl]-2,2-dimethylpropyl}-6-oxo-1,6-dihydro-2,2′-bipyrimidine-4-carboxamide]: the Ki turned out to be 23 nM on Rhesus PDE2A3 (setting [1]) and 21 nM at human PDE2A1 (setting [2]).

`COc1ccc(Cc2nc(C(=O)N[C@@H](c3ccc(SC(F)(F)F)cc3)C(C)(C)C)cc(=O)[nH]2)cc1` [Example 465, N-[(1R)-2,2-dimethyl-1-{4-[(trifluoromethyl)sulfanyl]phenyl}propyl]-2-(4-methoxybenzyl)-6-oxo-1,6-dihydropyrimidine-4-carboxamide]: the inhibition constant (Ki) on Rhesus PDE2A3 (setting [1]) and on human PDE2A1 (setting [2]) was 0.62 nM in each case.

Turning to `C[C@@H](NC(=O)c1cc(=O)[nH]c(-c2ccccc2)n1)c1ccc(OC(F)(F)F)c(F)c1` [Example 154, N-{(1R)-1-[3-fluoro-4-(trifluoromethoxy)phenyl]ethyl}-6-oxo-2-phenyl-1,6-dihydropyrimidine-4-carboxamide], the Ki on Rhesus PDE2A3 (setting [3]) is 2.6 nM; on human PDE2A1 (setting [4]), 1.5 nM.

Turning to `O=C(NC1(c2ccc(C(F)(F)F)cc2)CCCC1)c1cc(=O)[nH]c(C2CC2)n1` [Example 197, 2-cyclopropyl-6-oxo-N-{1-[4-(trifluoromethyl)phenyl]cyclopentyl}-1,6-dihydropyrimidine-4-carboxamide], the Ki at Rhesus PDE2A3 (setting [3]) was 62 nM; on human PDE2A1 (setting [4]), 29 nM.

Take `C[C@@H](NC(=O)c1cc(=O)[nH]c(-c2ccccc2)n1)c1ccc(C(F)(F)F)cc1F` [Example 150, N-{(1R)-1-[2-fluoro-4-(trifluoromethyl)phenyl]ethyl}-6-oxo-2-phenyl-1,6-dihydropyrimidine-4-carboxamide]: the Ki on Rhesus PDE2A3 (setting [3]) was 29 nM; at human PDE2A1 (setting [4]), 15 nM.

For the molecule `COc1ccc(C(C)(C)c2nc(C(=O)N[C@@H](c3ccc(OC(F)(F)F)c(F)c3)C(C)(C)C)cc(=O)[nH]2)cc1` [Example 487, N-{(1R)-1-[3-fluoro-4-(trifluoromethoxy)phenyl]-2,2-dimethylpropyl}-2-[1-(4-methoxyphenyl)-1-methylethyl]-6-oxo-1,6-dihydropyrimidine-4-carboxamide], the Ki was 61 nM at Rhesus PDE2A3 (setting [1]) and 63 nM on human PDE2A1 (setting [2]).

With `CC(NC(=O)c1cc(=O)[nH]c(C2CC2)n1)c1ccc(C2CC2)cc1` (stereo not drawn) [Example 195, 2-cyclopropyl-N-[1-(4-cyclopropylphenyl)ethyl]-6-oxo-1,6-dihydropyrimidine-4-carboxamide], the inhibition constant (Ki) at Rhesus PDE2A3 (setting [3]) is 33 nM; at human PDE2A1 (setting [4]), 18 nM.

Take `CC(C)(NC(=O)c1cc(=O)[nH]c(C2CC2)n1)c1ccc(OC(F)(F)F)c(F)c1` [Example 198]: the inhibition constant (Ki) on Rhesus PDE2A3 (setting [3]) came out at 96 nM; at human PDE2A1 (setting [4]) it was 59 nM.

For `O=C(NC1(c2ccc(SC(F)(F)F)cc2)CC1)c1cc(=O)[nH]c(-c2ncccn2)n1` [Example 77, 6-oxo-N-(1-{4-[(trifluoromethyl)sulfanyl]phenyl}cyclopropyl)-1,6-dihydro-2,2′-bipyrimidine-4-carboxamide], the Ki was found to be 19 nM at Rhesus PDE2A3 (setting [3]), 14 nM at Rhesus PDE2A3 (setting [1]) and 21 nM at human PDE2A1 (setting [2]).

Take `Cc1nc(C(=O)NC(C)c2ccc(C(C)(C)C(F)(F)F)cc2)cc(=O)[nH]1` (single isomer, unassigned) [Example 694, (S)- or (R)-2-methyl-6-oxo-N-(1-(4-(1,1,1-trifluoro-2-methylpropan-2-yl)phenyl)ethyl)-1,6-dihydropyrimidine-4-carboxamide]: the Ki at Rhesus PDE2A3 (setting [1]) was greater than 2970 nM; at human PDE2A1 (setting [2]) it was greater than 1240 nM.

Consider `CC[C@@H](NC(=O)c1cc(=O)[nH]c(C2CC2)n1)c1ccc(SC(F)(F)F)cc1` [Example 236, 2-cyclopropyl-6-oxo-N-[(1R)-1-{4-[(trifluoromethyl)sulfanyl]phenyl}propyl]-1,6-dihydropyrimidine-4-carboxamide], for which the inhibition constant Ki on Rhesus PDE2A3 (setting [3]) was determined as 4.3 nM; at human PDE2A1 (setting [4]) it was 5.5 nM.

On to `CC(NC(=O)c1cc(=O)[nH]c(-c2ncccn2)n1)c1ccc(Br)cc1` (stereo not drawn) [Example 85, N-[1-(4-bromophenyl)ethyl]-6-oxo-1,6-dihydro-2,2′-bipyrimidine-4-carboxamide], for which the inhibitory constant (Ki) is 60 nM at Rhesus PDE2A3 (setting [3]) and 41 nM on human PDE2A1 (setting [4]).

As for `CC(C)(C)[C@@H](NC(=O)c1cc(=O)[nH]c(C2CC2)n1)c1ccc(C2CC2)c(F)c1` [Example 435, 2-cyclopropyl-N-[(1R)-1-(4-cyclopropyl-3-fluorophenyl)-2,2-dimethylpropyl]-6-oxo-1,6-dihydropyrimidine-4-carboxamide], the inhibitory constant (Ki) on Rhesus PDE2A3 (setting [1]) came out at 1.1 nM; on human PDE2A1 (setting [2]), 0.78 nM.

Consider `O=C(NC1(c2ccc(C(F)(F)F)cc2)CCCC1)c1cc(=O)[nH]c(-c2ccccc2)n1` [Example 415, 6-oxo-2-phenyl-N-{1-[4-(trifluoromethyl)phenyl]cyclopentyl}-1,6-dihydropyrimidine-4-carboxamide], for which the inhibition constant (Ki) on Rhesus PDE2A3 (setting [1]) was determined as 29 nM; at human PDE2A1 (setting [2]) it was 30 nM.

For `CC(C)c1ccc([C@@H](C)NC(=O)c2cc(=O)[nH]c(C3CC3)n2)cc1` [Example 298, 2-cyclopropyl-N-{(1R)-1-[4-(1-methylethyl)phenyl]ethyl}-6-oxo-1,6-dihydropyrimidine-4-carboxamide], the Ki at Rhesus PDE2A3 (setting [3]) stood at 18 nM; on human PDE2A1 (setting [4]) it was 13 nM.

Take `O=C(NC(c1ccc(C(F)(F)F)cc1)C(F)(F)F)c1cc(=O)[nH]c(-c2ccccc2)n1` (stereo not drawn) [Example 393, 6-oxo-2-phenyl-N-{2,2,2-trifluoro-1-[4-(trifluoromethyl)phenyl]ethyl}-1,6-dihydropyrimidine-4-carboxamide]: the Ki was 55 nM on Rhesus PDE2A3 (setting [1]) and 49 nM on human PDE2A1 (setting [2]).

Consider `C[C@@H](NC(=O)c1cc(=O)[nH]c(-c2ccccc2)n1)c1ccc(CC(F)(F)F)cc1` [Example 183, 6-oxo-2-phenyl-N-{(1R)-1-[4-(2,2,2-trifluoromethyl)phenyl]ethyl}-1,6-dihydropyrimidine-4-carboxamide], for which the figures for the Ki at Rhesus PDE2A3 (setting [3]) and at human PDE2A1 (setting [4]) were 6.4 nM and 4.1 nM, respectively.

Take `CC[C@@H](NC(=O)c1cc(=O)[nH]c(-c2ncccn2)n1)c1ccc(SC(F)(F)F)c(F)c1` [Example 263, N-[(1R)-1-{3-fluoro-4-[(trifluoromethyl)sulfanyl]phenyl}propyl]-6-oxo-1,6-dihydro-2,2′-bipyrimidine-4-carboxamide]: the figures for the Ki at Rhesus PDE2A3 (setting [3]), at Rhesus PDE2A3 (setting [1]) and at human PDE2A1 (setting [2]) were 1.5 nM, 1.9 nM and 2.1 nM, respectively.

`COc1ccc(C(C)(C)c2nc(C(=O)N[C@@H](c3ccc(C(F)(F)F)c(F)c3)C(C)C)cc(=O)[nH]2)cc1` [Example 486, N-{(1R)-1-[3-fluoro-4-(trifluoromethyl)phenyl]-2-methylpropyl}-2-[1-(4-methoxyphenyl)-1-methylethyl]-6-oxo-1,6-dihydropyrimidine-4-carboxamide]: the inhibition constant Ki came out at 60 nM at Rhesus PDE2A3 (setting [1]) and 46 nM on human PDE2A1 (setting [2]).

For `C[C@@H](NC(=O)c1cc(=O)[nH]c(C2CC2)n1)c1ccc(C2CC2)cc1` [Example 256, 2-cyclopropyl-N-[(1R)-1-(4-cyclopropylphenyl)ethyl]-6-oxo-1,6-dihydropyrimidine-4-carboxamide], the Ki is 13 nM at Rhesus PDE2A3 (setting [3]), 21 nM at Rhesus PDE2A3 (setting [1]), roughly 12 nM on human PDE2A1 (setting [4]) and 20 nM on human PDE2A1 (setting [2]).

For `CCc1nc(C(=O)NC2(c3ccc(C(F)(F)F)c(F)c3)CC2)cc(=O)[nH]1` [Example 601, 2-ethyl-N-{1-[3-fluoro-4-(trifluoromethyl)phenyl]cyclopropyl}-6-oxo-1,6-dihydropyrimidine-4-carboxamide], the figures for the inhibition constant (Ki) at Rhesus PDE2A3 (setting [1]) and at human PDE2A1 (setting [2]) were 8 nM and 8.2 nM, respectively.

Regarding `COCc1nc(C(=O)N[C@H](C)c2ccc(C(F)(F)F)c(F)c2)cc(=O)[nH]1` [Example 125, N-{(1R)-1-[3-fluoro-4-(trifluoromethyl)phenyl]ethyl}-2-(methoxymethyl)-6-oxo-1,6-dihydropyrimidine-4-carboxamide], the Ki at Rhesus PDE2A3 (setting [3]) came to 176 nM; on human PDE2A1 (setting [4]) it was 45 nM.

`O=C(N[C@@H](CC(F)(F)F)c1ccc(C(F)(F)F)cc1)c1cc(=O)[nH]c(-c2ccccc2)n1` [Example 366, 6-oxo-2-phenyl-N-{(1S)-3,3,3-trifluoro-1-[4-(trifluoromethyl)phenyl]propyl}-1,6-dihydropyrimidine-4-carboxamide]: the inhibition constant (Ki) on Rhesus PDE2A3 (setting [3]) came out at 132 nM; at Rhesus PDE2A3 (setting [1]), 458 nM; on human PDE2A1 (setting [2]), 386 nM.

For `O=C(N[C@@H](c1ccc(C2CC2)cc1)C1CC1)c1cc(=O)[nH]c(-c2ncccn2)n1` [Example 453, N-[(R)-cyclopropyl(4-cyclopropylphenyl)methyl]-6-oxo-1,6-dihydro-2,2′-bipyrimidine-4-carboxamide], the Ki on Rhesus PDE2A3 (setting [1]) was 7.3 nM; on human PDE2A1 (setting [2]), 7.6 nM.

`Cc1nc(C(=O)NC(c2ccc(C(F)(F)F)cc2)c2nnn[nH]2)cc(=O)[nH]1` (stereo not drawn) [Example 336, 2-Methyl-6-oxo-N-{1H-tetrazol-5-yl[4-(trifluoromethyl)phenyl]methyl}-1,6-dihydropyrimidine-4-carboxamide]: the values for the Ki on Rhesus PDE2A3 (setting [3]) and at human PDE2A1 (setting [4]) were 60 nM and 59 nM, respectively.

(Values after patent US9815796B2 (Merck Sharp & Dohme Corp., priority 2013, dated 2017).)
